Reference: patent US20080194585A1, “Fungicidal Pyrazine Derivatives” (priority 2005, published 2008)
Marks after values point to notes of the source that are not given here.

Columns and labels:
[1] = test system: Plasmopara viticola; assay: Test D: grape downy mildew, spray after inoculation of grape seedlings; type: in vivo
Source text: Upon removal, disease ratings were made. […] A dash (-) indicates no test results.

[2] = test system: Phytophthora infestans; assay: whole plant or invertebrate; type: in vivo
[3] = test system: Septoria tritici; assay: Test J: wheat leaf blotch, preventive spray on wheat seedlings; type: in vivo
Source text: A dash (-) indicates no test results.

[4] = test system: Puccinia recondita f. sp. tritici; assay: Test K: wheat leaf rust, preventive spray on wheat seedlings
[5] = test system: Botrytis cinerea; assay: Test E: tomato botrytis, preventive spray on tomato seedlings
[6] = test system: Septoria nodorum; assay: Test H: wheat glum blotch, preventive spray on wheat seedlings
Procedure: (the causal agent of wheat glum blotch) and incubated in a saturated atmosphere at 20° C. for 48 h, and then moved to a growth chamber at 22° C. for 5 days, after which disease ratings were made.

[7] = test system: Erysiphe graminis f. sp. tritici; assay: Test L: wheat powdery mildew, preventive spray on wheat seedlings
[8] = test system: Sclerotinia sclerotiorum; assay: Test C: cucumber white mold, preventive spray on cucumber seedlings
[9] = test system: Pythium aphanidermatum; assay: Test A: bluegrass pythium blight, preventive spray on bluegrass seedlings
[10] = test system: Rhizoctonia oryzae; assay: Test G: turf brown patch, preventive spray on creeping bent grass seedlings
Procedure: (the causal agent of turf brown patch) and incubated in a saturated atmosphere at 27° C. for 24 h, and then moved to a growth chamber at 27° C. for 5 days, after which disease ratings were made.

[11] = test system: Colletotrichum orbiculare; assay: Test B: cucumber Colletotrichum anthracnose, preventive spray on cucumber seedlings

Row | Compound | Test D disease control rating ([1]; 200 ppm) | Test F disease control rating ([2]; 200 ppm) | Test J disease control rating ([3]; 200 ppm) | Test K disease control rating ([4]; 200 ppm) | Test E disease control rating ([5]; 200 ppm) | Test H disease control rating ([6]; 200 ppm) | Test L disease control rating ([7]; 200 ppm) | Test C disease control rating ([8]; 200 ppm) | Test A disease control rating ([9]; 200 ppm) | Test G disease control rating ([10]; 200 ppm) | Test B disease control rating ([11]; 200 ppm) | Test D disease control rating ([1]; 40 ppm (*)) | Test F disease control rating ([2]; 40 ppm (*)) | Test J disease control rating ([3]; 40 ppm (*)) | Test K disease control rating ([4]; 40 ppm (*)) | Test E disease control rating ([5]; 40 ppm (*)) | Test H disease control rating ([6]; 40 ppm (*)) | Test L disease control rating ([7]; 40 ppm (*)) | Test C disease control rating ([8]; 40 ppm (*)) | Test A disease control rating ([9]; 40 ppm (*)) | also measured
1 | O=c1c(-n2cncn2)nc(Cl)c(-c2c(F)cccc2F)n1-c1ccccc1 [compound 162] | 8% | 0% | 100% | 27% | 85% | 0% | 0% | 0% | 0% | 47% | 9% | – | – | – | – | – | – | – | – | – | –
2 | CCC(C)Cn1c(-c2ccc(F)cc2Cl)c(Cl)nc(-n2cccn2)c1=O (stereo not shown) [compound 164] | 44% | 0% | 100% | 100% | 100% | 100% | 100% | 91% | 0% | 74% | 100% | – | – | – | – | – | – | – | – | – | –
3 | CC(C)Cn1c(-c2ccccc2F)c(Cl)nc(-n2cccn2)c1=O [compound 174] | – | – | – | – | – | – | – | – | – | – | – | 15* % | 0* % | 100* % | 99* % | 100* % | 99* % | 98* % | 0* % | 0* % | Test G disease control rating ([10]; 40 ppm (*)): 62* %; Test B disease control rating ([11]; 40 ppm (*)): 0* %
4 | CC(C)Cn1c(-c2ccccc2F)c(Cl)nc(-n2cncn2)c1=O [compound 175] | 12% | 0% | 98% | 60% | 99% | 99% | 92% | 0% | 0% | 91% | 0% | – | – | – | – | – | – | – | – | – | –
5 | COc1ccccc1-c1c(Cl)nc(-n2cccn2)c(=O)n1CC(C)C [compound 176] | 4% | 0% | 94% | 0% | 99% | 73% | 0% | 0% | 0% | 56% | 0% | – | – | – | – | – | – | – | – | – | –
6 | CC(C)(C)CCn1c(-c2c(F)cccc2F)c(Cl)nc(-n2cccn2)c1=O [compound 182] | 0% | 0% | 100% | 85% | 91% | 0% | 85% | 0% | 0% | 31% | 0% | – | – | – | – | – | – | – | – | – | –
7 | Cn1c(-c2c(F)cccc2F)c(Cl)nc(-n2cccn2)c1=O [compound 185] | – | – | – | – | – | – | – | – | – | – | – | 8* % | 0* % | 8* % | 0* % | 81* % | 0* % | 90* % | 0* % | 0* % | Test G disease control rating ([10]; 40 ppm (*)): 0* %; Test B disease control rating ([11]; 40 ppm (*)): 0* %
8 | CSCC(C)n1c(-c2c(F)cccc2F)c(Cl)nc(-n2cccn2)c1=O (stereo not shown) [compound 198] | – | – | – | – | – | – | – | – | – | – | – | 8* % | 0* % | 0* % | 0* % | 0* % | 0* % | 0* % | 0* % | 0* % | Test G disease control rating ([10]; 40 ppm (*)): 0* %; Test B disease control rating ([11]; 40 ppm (*)): 0* %
9 | CSCC(C)n1c(-c2c(F)cccc2F)c(Cl)nc(-n2cncn2)c1=O (stereo not shown) [compound 199] | – | – | – | – | – | – | – | – | – | – | – | 4* % | 0* % | 1* % | 0* % | 0* % | 0* % | 0* % | 0* % | 0* % | Test G disease control rating ([10]; 40 ppm (*)): 0* %; Test B disease control rating ([11]; 40 ppm (*)): 0* %
10 | CC(CS(C)(=O)=O)n1c(-c2c(F)cccc2F)c(Cl)nc(-n2cccn2)c1=O (stereo not shown) [compound 200] | – | – | – | – | – | – | – | – | – | – | – | 8* % | 0* % | 9* % | 0* % | 0* % | 0* % | 0* % | 0* % | 0* % | Test G disease control rating ([10]; 40 ppm (*)): 0* %; Test B disease control rating ([11]; 40 ppm (*)): 0* %
11 | CC(CS(C)(=O)=O)n1c(-c2c(F)cccc2F)c(Cl)nc(-n2cncn2)c1=O (stereo not shown) [compound 201] | – | – | – | – | – | – | – | – | – | – | – | 0* % | 0* % | 0* % | 0* % | 0* % | 0* % | 0* % | 0* % | 0* % | Test G disease control rating ([10]; 40 ppm (*)): 0* %; Test B disease control rating ([11]; 40 ppm (*)): 0* %
12 | Cc1cccc(C)c1-c1c(Cl)nc(-n2cccn2)c(=O)n1CC(C)C [compound 202] | 12% | 0% | 100% | 100% | 100% | 99% | 99% | 0% | 45% | 99% | 93% | – | – | – | – | – | – | – | – | – | –
13 | CC(C)Cn1c(C(C)(C)C)c(Cl)nc(-n2cccn2)c1=O [compound 203] | 12% | 0% | 0% | 0% | 0% | 0% | 0% | 0% | 74% | 0% | 0% | – | – | – | – | – | – | – | – | – | –
14 | CC(C)Cn1c(C(C)C)c(Cl)nc(-n2cccn2)c1=O [compound 204] | 12% | 0% | 90% | 98% | 98% | 0% | 99% | 0% | 0% | 95% | 0% | – | – | – | – | – | – | – | – | – | –
